Results as given in US20120288456A1, “NOVEL COMPOUND” (priority 2009, published 2012).

Assays:
[1] = Solubility of BMDBM and BEMT in cosmetic solvent with and without PG-UVB (saturation, HPLC of supernatant; storage test); conditions: 200 mg BEMT in 800 mg diethylhexyl adipate/PG-UVB1 1:1, 1 month at RT
[2] = Comparative solubility of BMDBM in 1:1 mixture of C12-15 alkyl benzoate and a polymeric or solid UV-filter
Excerpt: Where necessary the mixture was centrifuged in order to obtain a clear supernatant.

re-crystallization on storage [1]: no re-crystallization occurred | Δ solubility of BMDBM related to cosmetic solvent ([2]; C12-15 alkyl benzoate/UV-filter 1:1, label = UV-filter): −4 wt.-% | Δ solubility of BMDBM ([2]; C12-15 alkyl benzoate/UV-filter 1:1 versus C12-15 alkyl benzoate, label = UV-filter): −11 wt.-% | Solubility of BMDBM in C12-15 alkyl benzoate/UV-filter 1:1 ([2]; label = UV-filter in 1:1 mixture, 200 mg BMDBM in 1000 mg mixture, 1 month at RT, HPLC of supernatant): 3 wt.-%
SMILES: CCCCC(CC)COc1ccc(-c2nc(-c3ccc(OC)cc3)nc(-c3ccc(OCC(CC)CCCC)cc3O)n2)c(O)c1 (stereo not shown) [BEMT, bis-ethylhexyloxyphenol methoxyphenyl triazine]
